From patent US20190183910A1, “ENHANCING DNA REPAIR AND PREVENTING AGING AND ITS CONSEQUENCES IN REPRODUCTIVE AND OTHER CELLS” (NEW YORK MEDICAL COLLEGE, priority 2016, published 2019)
Several values for one entry are separate records, joined by “and”; a condition that tells them apart may be missing. Equal values may be shown once.

Legend:
mouse sperm [1] = test: Susceptibility of DNA to denaturation by AO staining in mouse sperm; format: cell-based; conditions: as a result of S1P treatment
Procedure: (§1) Treatment was performed with genotoxic stress (1 mM H2O2), S1P (200 μM), and S1P with genotoxic stress and control in culture for one hour. Also, the use of an ATM inhibitor was utilized (10 μM) (KU-55593, Abcam) (Li et al., 2014). We assessed DNA damage, apoptosis, and chromatin integrity. We also studied the DNA DSB repair gene expression by qRT-PCR in sperm lysates.
DNA integrity of mouse sperm were assessed via flow cytometry using acridine orange (AO) staining (Hawley and Hawley, 2004). AO fluoresces green when attached to native DNA, and fluoresces red when attached to fragmented DNA. Basically, after induction of denaturation by heat or acid the denatured DNA (ssDNA) stains metachromatically red with AO while dsDNA stains green. When the sample has ≥50% green fluorescence, the sample is of good quality. Similarly, AO was used to assess sperm chromatin structure by measuring its intensity of fluorescence, which is the ratio of red/(red+green) yields the percentage of DNA fragmentation (also known as DNA fragmentation index, or DFI %).

mouse sperm [2] = test: Apoptosis by FLICA (activated caspases) in mouse sperm; format: cell-based; conditions: as a result of S1P treatment
Procedure: as §1
Levels of activated caspases were detected in mouse sperm samples using fluorescein-labelled inhibitors of caspases (FLICA). This cell-permeable and non-cytotoxic caspase inhibitor binds covalently to active caspases. The fluorogenic substrate becomes fluorescent on cleavage by the caspases. The inhibitors were used with the appropriate controls according to the kit instructions provided by the manufacturer (ImmunoChemistry Technologies). A 150-fold stock solution of the inhibitor was prepared in dimethylsulphoxide (DMSO). It was further diluted in phosphate-buffered saline (PBS) to yield a 30-fold working solution. Sperm samples (300 μl) were incubated at 37° C. for 1 hr with 10 μl of the working solution and subsequently washed twice with PBS. After labeling with FLICA, 1% propidium iodide (PI) in PBS was used to assess dead cells. All samples were analyzed directly by flow cytometry to detect caspase activity (Bedner et al., 2000; Darzynkiewicz et al., 2011).

ATM = test: qRT-PCR DNA DSB repair gene expression in mouse sperm lysates, ATM; format: cell-based
Procedure: as §1
(§2) Sperm pellets previously snap-frozen in PBS were thawed. RNA was extracted using the trizol method (Rio et al., 2010). The quality and quantity of the RNA were measured with NanoDrop 2000 from Thermo Scientific. RNA (2 μg) from each sample was taken for reverse transcription with dTVN and N9 primers and SuperScript III reverse transcriptase, all procured from Invitrogen. The resulting cDNA was used to perform real-time qPCR with SYBR Green on an Applied Biosystems 7900HT Real-Time PCR machine was used. To determine the relative expression of various DNA repair genes in mouse sperm, we used the ΔΔCt method, which makes use of the expression of housekeeping genes. GAPDH was used as housekeeping gene. Primers were procured from Integrated DNA technologies (IDT) (Table 3).

[3] = in vivo continuous or intermittent administration to mice (Soleimani et al., 2011; Li et al, 2014); cited from earlier work
DMC1 = test: qRT-PCR DNA DSB repair gene expression in mouse sperm lysates, DMC1; format: cell-based
Procedure: as §1, §2

human sperm = test: Alkaline comet assay on human sperm; format: cell-based; conditions: n=3, mean±SEM
mouse sperm [4] = test: Neutral comet assay on mouse sperm; format: cell-based; conditions: for percent tail DNA, neutral comet: mouse sperm, n=9, mean±SEM
Procedure: as §1
Slides were prepared 48 hours prior to experimentation by coating normal glass microscope slides with 500 μl normal melting point agar (NMPA, 0.5% w/v in PBS) solution and left to dry at room temperature for no less than 48 hours. Once samples were obtained, 10 μl of mouse sperm suspension was mixed with 90 μl of 0.5% low melting point agar (LMPA). Then, this 100 μl solution was added to the NMPA-coated slides. Coverslips were added and slides were placed on a metallic tray on ice and in the dark for 5 minutes. The cover slips were then removed and another layer of LMPA was added. Cover slips were subsequently replaced before the LMPA hardened. Slides were then kept in the dark on ice again for another 5 minutes. After ten minutes, the cover slips were removed and slides were placed in staining jars containing ice cold lysing solution (2.5 M NaCl, 100 mM EDTA, sodium N-laurylsacrosinate [SLS]. [1% w/v] and 10 mM Trizma base pH10, and 1% Triton-X-100 and 10% DMSO [immediately adding before use]) for 1 hour at 4° C. in a dark place.
After this lysis step, the slides were washed three times for 5 minutes with the cold electrophoresis buffer (0.089 M Tris base, 0.089 M boric acid and 2 mM EDTA [pH 8.3]), and then placed flatly in the electrophoresis tank face up for 30 minutes. This incubation period was used to achieve the unwinding of the DNA. Electrophoresis was then performed at 18 V for 60 minutes. After this, slides were washed twice in PBS for 5 minutes each. Before analysis could occur, the sperm within the slides needed to be fixed by two 10 minute washes in ethanol, and then air drying at room temperature. Ethidium bromide (50 μl at 10 μg/ml in water) was then added on the slide, and sealed with a cover slip. Slides were kept moist, wrapped in aluminum foil to prevent light exposure, and stored at 4° C. until analysis (Smart et al., 2008).
Slides from both alkaline and neutral comets were imaged by fluorescence microscopy using a Nikon OPTIPHOT microscope. ImageJ was used for comet assay analysis, which calculated tail length, tail moment, and % of DNA in the tail. […] The comets were “on scale” for the calculations to be correct (the brightest pixels of interest were below 255 on an 8-bit scale). […] To analyze the slides, an oval around the sperm head was drawn and calculated and then an oval around the sperm tail was drawn and calculated. […] It was calculated as the Pythagorean distance between two points. […]

mouse sperm [5] = test: Reactive oxygen species in mouse sperm; format: cell-based; conditions: as a result of S1P treatment
Procedure: as §1

[6] = S1P with genotoxic stress, with ATM inhibitor, n=8, mean±SEM
[7] = S1P with H2O2, without ATM inhibitor

For `CCCCCCCCCCCCC/C=C/[C@@H](O)[C@@H](N)COP(=O)(O)O` [S1P, sphingosine 1 phosphate], the “susceptibility of DNA to denaturation by AO staining” value (mouse sperm [1]) was “no significant difference”, the “percentage of apoptosis by FLICA” value (mouse sperm [2]) was “no significant difference” and the “ATM expression (qRT-PCR)” value (ATM; S1P treatment, no ATM inhibitor) was “no significant difference”. The “ATM gene expression (qRT-PCR)” value (ATM; [6]) was 0.042±0.011, the side effects [3] was “no detectable side effects” and the “DMC1 expression (qRT-PCR)” value (DMC1; S1P alone, with ATM inhibitor, n=8, mean±SEM) was 0.027±0.014. For the same compound, the “DMC1 expression (qRT-PCR)” value (DMC1; S1P in the presence of genotoxic stress, n=9, mean±SEM) was 0.029±0.04, the “DMC1 expression (qRT-PCR)” value (DMC1; [6]) was 0.0035±0.005 and the “percent tail DNA, alkaline comet” value (human sperm; S1P with H2O2, with ATM inhibitor) was 26.1±1.19%. For the same compound, the “percent tail DNA, alkaline comet” value (human sperm; [7]) was 13.2±0.51% and 13.2±1.25%, the “DNA damage, neutral comet” value (mouse sperm [4]; S1P-treated mouse sperm with ATM inhibitor) was “no significant difference” and the “percent tail DNA, neutral comet” value (mouse sperm [4]; S1P alone, without ATM inhibitor) was 18.5±0.59%. For the same compound, the “percent tail DNA, neutral comet” value (mouse sperm [4]; [7]) was 18.8±0.73% and the reactive oxygen species (mouse sperm [5]) was “no significant difference”.
